Experimental findings from ChEMBL document CHEMBL1152341, “Polyacetylenes from sardinian Oenanthe fistulosa: a molecular clue to risus sardonicus” (J Nat Prod, 2009) are described below.

The nature of assay [1]: (§1) Antagonist activity at GABAA receptor in Wistar rat neuronal cells assessed inhibition of GABA-evoked response by patch-clamp technique. Format: functional, cell-based.
A further assay has as its system neuronal. The description is as §1. Format: functional, cell-based.

The compound `CCC[C@@H](O)CC/C=C/C=C/C#CC#CCCCO` [DIHYDROOENANTHOTOXIN] came in with an EC50 in assay [1] of 0.835 µM.

The compound `CCC[C@@H](O)CC/C=C/C=C/C#CC#C/C=C/CO` [OENANTHOTOXIN] displayed an EC50 in assay [1] of 1.39 µM. Besides, the Activity result in the assay on neuronal was “Dose-dependent effect”.
